Assay results from patent US20190055279A1, “NOVEL POLYPEPTIDES WITH IMPROVED PROTEOLYTIC STABILITY, AND METHODS OF PREPARING AND USING SAME” (TUFTS UNIVERSITY, priority 2015, published 2019).
Where two headings read alike, the source gives them in different places.

Experiments:
FAP [1] = biological target: T1, FAP (Homo sapiens, UniProt Q12884)
T1 sequence (Q12884 1-760): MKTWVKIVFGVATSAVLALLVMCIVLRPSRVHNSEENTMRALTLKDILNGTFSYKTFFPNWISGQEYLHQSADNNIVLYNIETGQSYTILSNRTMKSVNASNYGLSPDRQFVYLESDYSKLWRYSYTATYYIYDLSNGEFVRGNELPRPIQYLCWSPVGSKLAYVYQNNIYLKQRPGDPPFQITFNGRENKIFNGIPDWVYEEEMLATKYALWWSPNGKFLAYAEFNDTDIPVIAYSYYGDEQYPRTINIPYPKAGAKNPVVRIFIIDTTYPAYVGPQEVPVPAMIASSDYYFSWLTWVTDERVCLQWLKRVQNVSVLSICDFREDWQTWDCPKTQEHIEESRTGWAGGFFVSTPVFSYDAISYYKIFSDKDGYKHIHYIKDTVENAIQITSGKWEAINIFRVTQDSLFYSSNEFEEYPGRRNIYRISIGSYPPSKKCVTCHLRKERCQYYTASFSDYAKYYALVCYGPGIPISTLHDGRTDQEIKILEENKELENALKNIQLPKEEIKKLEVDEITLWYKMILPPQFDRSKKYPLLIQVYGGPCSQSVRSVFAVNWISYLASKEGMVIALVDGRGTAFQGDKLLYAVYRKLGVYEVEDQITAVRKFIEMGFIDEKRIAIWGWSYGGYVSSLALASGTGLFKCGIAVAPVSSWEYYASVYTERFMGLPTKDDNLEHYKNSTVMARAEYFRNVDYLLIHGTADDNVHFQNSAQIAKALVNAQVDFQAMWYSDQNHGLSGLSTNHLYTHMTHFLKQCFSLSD

DPP2 [2] = biological target: T2, DPP2 (Homo sapiens, UniProt Q9UHL4)
DPP4 [3] = biological target: T3, DPP4 (Homo sapiens, UniProt P27487)
T3 sequence (P27487 whole entry, species assumed): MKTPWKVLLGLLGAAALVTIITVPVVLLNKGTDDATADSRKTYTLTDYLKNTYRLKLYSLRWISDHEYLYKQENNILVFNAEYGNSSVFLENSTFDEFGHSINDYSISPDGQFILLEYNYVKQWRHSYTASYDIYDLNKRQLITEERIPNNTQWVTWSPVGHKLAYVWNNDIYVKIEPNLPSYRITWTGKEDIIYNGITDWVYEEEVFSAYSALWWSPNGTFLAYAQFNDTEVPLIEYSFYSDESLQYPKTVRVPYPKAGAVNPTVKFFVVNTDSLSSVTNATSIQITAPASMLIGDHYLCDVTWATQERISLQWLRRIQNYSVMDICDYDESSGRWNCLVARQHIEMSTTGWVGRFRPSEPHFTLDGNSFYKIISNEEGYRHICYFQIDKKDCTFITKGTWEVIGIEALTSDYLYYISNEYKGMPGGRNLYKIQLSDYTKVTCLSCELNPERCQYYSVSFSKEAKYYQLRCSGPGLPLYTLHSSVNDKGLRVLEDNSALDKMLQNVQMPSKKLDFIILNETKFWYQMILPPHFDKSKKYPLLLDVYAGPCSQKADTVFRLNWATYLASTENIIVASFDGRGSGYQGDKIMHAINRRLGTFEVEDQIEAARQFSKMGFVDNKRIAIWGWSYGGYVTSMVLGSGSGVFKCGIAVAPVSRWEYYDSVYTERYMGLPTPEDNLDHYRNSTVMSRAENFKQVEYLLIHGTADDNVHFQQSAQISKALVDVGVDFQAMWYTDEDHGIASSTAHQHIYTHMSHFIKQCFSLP
Procedure: Peptides were incubated with vehicle or recombinant DPP4. Serial dilutions of GLP2-1 and GLP2-4 were then applied to HEK293 cells, which had been transfected with cDNA encoding human GLP-2R and a cAMP-responsive reporter gene.
Peptides were incubated with recombinant DPP4. Serial dilutions of GLP-2 and GLP2-4 were then applied to HEK293 cells, which had been transfected with cDNA encoding human GLP-2R and a cAMP-responsive reporter gene. […] N=4, mean+SEM.
DPP4 resistance (FIG. 13): Lipidated peptides are compared with the prototype, F-GLP2-palm. After an overnight incubation (16 hrs) in the presence vs. the absence of DPP4, receptor mediated function is assessed as shown elsewhere herein. As a DPP4 susceptible control, parallel experiments are done using GLP-2. […] Following overnight preincubation, serial dilutions of ligands were prepared and added to GLP-2R expressing cells for 4 hours. A luciferase reporter gene assay was used to monitor Gαs coupled second messenger signaling.

SBS patients = details: after 52 weeks of treatment; cited from earlier work
wild type mice = details: GLP-2 twice daily over ten days; GATTEX daily; cited from earlier work
[4] = cited from earlier work
DPP4 [5] = biological target: T3, DPP4; experiment: Sensitivity to DPP4: overnight incubation with recombinant DPP4 or vehicle, then receptor agonist bioassay; details: overnight incubation with or without DPP4, readout at cognate receptor
Procedure: Plotting concentration versus the luciferase activity yielded quantitative parameters for combined binding (potency) and signaling (efficacy) in a single step. […] DPP4 treated peptides: 10 μl of 0.26 mM peptide were incubated with 2 μL DPP4 in buffer ±DMSO for 18 hrs. Control peptides: 10 μl of 0.26 mM peptide was added to buffer ±DMSO. The final DMSO concentration was the same for all peptides and all peptides were diluted to 0.26 mM concentrations for the DPP4 assay.
Compounds are incubated overnight at 37° C. in the presence of recombinant DPP4 or vehicle (TRIS buffer). The samples are then assessed in GLP-1R agonist assays.
Compounds were incubated overnight at 37° C. in the presence of recombinant DPP4 or vehicle (TRIS buffer, pH 8.0). The samples were then assessed in GLP1R agonist assays as described elsewhere herein.

FAP [6] = biological target: T1, FAP; experiment: Stability assay with or without FAP, read out by receptor bioassay (FIG. 9A, FIG. 18); details: incubated with or without FAP
DPP2 [7] = biological target: T2, DPP2; experiment: Stability assay with or without DPP2, read out by receptor bioassay (FIG. 9A); details: incubated with or without DPP2

CC[C@H](C)[C@H](NC(=O)[C@H](CO)NC(=O)[C@H](Cc1ccc(O)cc1)NC(=O)[C@H](CC(=O)O)NC(=O)[C@H](CO)NC(=O)[C@@H](NC(=O)[C@H](Cc1ccccc1)NC(=O)[C@@H](NC(=O)CNC(=O)[C@H](CCC(=O)O)NC(=O)[C@H](C)NC(=O)[C@@H](N)Cc1ccc(O)cc1)[C@@H](C)O)[C@@H](C)CC)C(=O)N[C@@H](C)C(=O)N[C@@H](CCSC)C(=O)N[C@@H](CC(=O)O)C(=O)N[C@@H](CCCCN)C(=O)N[C@H](C(=O)N[C@@H](Cc1c[nH]cn1)C(=O)N[C@@H](CCC(N)=O)C(=O)N[C@@H](CCC(N)=O)C(=O)N[C@@H](CC(=O)O)C(=O)N[C@@H](Cc1ccccc1)C(=O)N[C@H](C(=O)N[C@@H](CC(N)=O)C(=O)N[C@@H](Cc1c[nH]c2ccccc12)C(=O)N[C@@H](CC(C)C)C(=O)N[C@@H](CC(C)C)C(=O)N[C@@H](C)C(=O)N[C@@H](CCC(N)=O)C(=O)N[C@@H](CCCCN)C(=O)NCC(=O)N[C@@H](CCCCN)C(=O)N[C@@H](CCCCN)C(=O)N[C@@H](CC(N)=O)C(=O)N[C@@H](CC(=O)O)C(=O)N[C@@H](Cc1c[nH]c2ccccc12)C(=O)N[C@@H](CCCCN)C(=O)N[C@@H](Cc1c[nH]cn1)C(=O)N[C@@H](CC(N)=O)C(=O)N[C@H](C(=O)N[C@H](C(=O)N[C@@H](CCC(N)=O)C(=O)O)[C@@H](C)O)[C@@H](C)CC)C(C)C)[C@@H](C)CC [GIP, Gastric Inhibitory Polypeptide]
stability to FAP (in words) (FAP [1]): major potency losses | stability to DPP2 (in words) (DPP2 [2]): major potency losses

CC[C@H](C)[C@H](NC(=O)[C@H](Cc1ccccc1)NC(=O)[C@H](CC(=O)O)NC(=O)[C@H](CCCNC(=N)N)NC(=O)[C@H](C)NC(=O)[C@H](C)NC(=O)[C@H](CC(C)C)NC(=O)[C@H](CC(N)=O)NC(=O)[C@H](CC(=O)O)NC(=O)[C@H](CC(C)C)NC(=O)[C@@H](NC(=O)[C@@H](NC(=O)[C@H](CC(N)=O)NC(=O)[C@H](CCSC)NC(=O)[C@H](CCC(=O)O)NC(=O)[C@H](CC(=O)O)NC(=O)[C@H](CO)NC(=O)[C@H](Cc1ccccc1)NC(=O)[C@H](CO)NC(=O)CNC(=O)[C@H](CC(=O)O)NC(=O)CNC(=O)[C@@H](N)Cc1c[nH]cn1)[C@@H](C)O)[C@@H](C)CC)C(=O)N[C@@H](CC(N)=O)C(=O)N[C@@H](Cc1c[nH]c2ccccc12)C(=O)N[C@@H](CC(C)C)C(=O)N[C@H](C(=O)N[C@@H](CCC(N)=O)C(=O)N[C@H](C(=O)N[C@@H](CCCCN)C(=O)N[C@H](C(=O)N[C@H](C(=O)N[C@@H](CC(=O)O)C(=O)O)[C@@H](C)O)[C@@H](C)CC)[C@@H](C)O)[C@@H](C)CC [Gattex, teduglutide]
DPP4 degradation / resistance (in words) (DPP4 [3]): only partial DPP4 resistance | SBS patients able to reduce their PN regimen by at least 1 day/week (SBS patients): 68% | patients who failed to reduce their PN regimen by even 1 day/week (SBS patients): 32% | treated patients entirely independent of PN (SBS patients): 4 of 52 | bowel weight (wild type mice): significant increase in both large and small bowel weights | in vivo half-life [4]: ~3 h

CC[C@H](C)[C@H](NC(=O)[C@H](CO)NC(=O)[C@H](Cc1ccc(O)cc1)NC(=O)[C@H](CC(=O)O)NC(=O)[C@H](CO)NC(=O)[C@@H](NC(=O)[C@H](Cc1ccccc1)NC(=O)[C@@H](NC(=O)CNC(=O)[C@H](CCC(=O)O)NC(=O)[C@H](C)NC(=O)[C@H](Cc1ccc(O)cc1)NCC(F)(F)F)[C@@H](C)O)[C@@H](C)CC)C(=O)N[C@@H](C)C(=O)N[C@@H](CCSC)C(=O)N[C@@H](CC(=O)O)C(=O)N[C@@H](CCCCN)C(=O)N[C@H](C(=O)N[C@@H](Cc1c[nH]cn1)C(=O)N[C@@H](CCC(N)=O)C(=O)N[C@@H](CCC(N)=O)C(=O)N[C@@H](CC(=O)O)C(=O)N[C@@H](Cc1ccccc1)C(=O)N[C@H](C(=O)N[C@@H](CC(N)=O)C(=O)N[C@@H](Cc1c[nH]c2ccccc12)C(=O)N[C@@H](CC(C)C)C(=O)N[C@@H](CC(C)C)C(=O)N[C@@H](C)C(=O)N[C@@H](CCC(N)=O)C(=O)N[C@@H](CCCCN)C(=O)NCC(=O)N[C@@H](CCCCN)C(=O)N[C@@H](CCCCN)C(=O)N[C@@H](CC(N)=O)C(=O)N[C@@H](CC(=O)O)C(=O)N[C@@H](Cc1c[nH]c2ccccc12)C(=O)N[C@@H](CCCCN)C(=O)N[C@@H](Cc1c[nH]cn1)C(=O)N[C@@H](CC(N)=O)C(=O)N[C@H](C(=O)N[C@H](C(=O)N[C@@H](CCC(N)=O)C(=O)O)[C@@H](C)O)[C@@H](C)CC)C(C)C)[C@@H](C)CC [I-4]
DPP4 degradation / resistance (in words) (DPP4 [5]): resistant | DPP4 degradation / resistance (in words) (DPP4 [5]; listed as I4): stable | stability to FAP (in words) (FAP [6]): stable | stability to DPP2 (in words) (DPP2 [7]): stable
